Test results reported in patent publication US20090214498A1, “ANTIMICROBIAL PEPTIDES AND BACTERIAL STRAINS THAT PRODUCE THEM” (TEAGASC- NATIONAL DIARY PRODUCTS RESEARCH CENTRE, priority 2005, published 2009).
Values after ≈ are worked out from the molar mass of the structure shown. Values joined by “and” are separate entries in the source; they are usually repeats but may differ in a detail not shown here. Equal values may be shown once. Residues, ends and D or L forms follow the SMILES beside them.

Columns and labels:
[1] = tested on: Lactobacillus bulgaricus ATCC11842 DPC5383; experiment: agar well diffusion assay, L. bulgaricus DPC5383; type: cell-based; parameters: key: +++: Zone of inhibition >2.0 cm in diameter produced.; ++: Zone of inhibition >1.5 cm in diameter produced.; +: Zone of inhibition >1.0 cm in diameter produced.; −: No zone detected; conditions: pure synthesised peptide
L. innocua DPC3306 = experiment: agar well diffusion assay, L. innocua DPC3306; type: cell-based; conditions: Listeria innocua DPC3306; for zone of inhibition (inhibitory spectrum): pure synthesised peptide
Description: (§1) Preliminary characterisation of the antibacterial activity of peptides and fractions synthesised involved measurement of growth inhibition in a 96-well plate assay (1, 10) and utilisation of an agar diffusion method (16,39). […] A control without bacteria (sterility control) was also included. The plates were incubated for 6 h at 37° C. and culture growth monitored hourly. Minimum inhibitory concentrations (MIC's) were taken as the lowest concentration without visible growth, measured by recording the OD600, in a micro-titre plate reader. A well diffusion assay (16, 40) was used to detect antibacterial activity of purified and chemically synthesised peptides. These assays were performed in either Brain Heart Infusion (BHI), Luria Bertani (LB) or Nutrient agar (NA) seeded with 1 ml of an overnight culture of the indicator strains E. coli DPC6053, L. innocua DPC3306, E. sakazakii 5920 (ATCC12868) or E. sakazakii 8272 (NCTC8155) respectively. Wells, 4.6 mm in diameter, were cut into these agar plates, and 30 μl (0.162 mg/ml) of the peptide fraction placed in each well. Plates were stored at 4° C. for 4 h to permit radial diffusion of the peptide, incubated at 30° C. anaerobically or 37° C. aerobically for 24 h, and examined for zones of inhibition. The sensitivity of a strain to the peptides was scored according to the diameter of the zone of inhibition surrounding the well. The experiments were performed in triplicate and mean zone size calculated.

E. coli O157:H7 DPC6055 = experiment: agar well diffusion assay, E. coli O157:H7 DPC6055; type: cell-based, Escherichia coli; parameters: key to zone of inhibition (inhibitory spectrum): +++: Zone of inhibition >2.0 cm in diameter produced.; ++: Zone of inhibition >1.5 cm in diameter produced.; +: Zone of inhibition >1.0 cm in diameter produced.; −: No zone detected; conditions: for zone of inhibition (inhibitory spectrum): E. coli O157:H7 DPC6055, pure synthesised peptide
E. coli DPC6053 [2] = experiment: agar well diffusion assay, E. coli DPC6053; type: cell-based, Escherichia coli JM109; parameters: key to zone of inhibition (inhibitory spectrum): +++: Zone of inhibition >2.0 cm in diameter produced.; ++: Zone of inhibition >1.5 cm in diameter produced.; +: Zone of inhibition >1.0 cm in diameter produced.; −: No zone detected; conditions: for zone of inhibition (inhibitory spectrum): Escherichia coli JM109 DPC6053, pure synthesised peptide; for concentration at which the indicator organism was inhibited: agar well-diffusion assay
Description: as §1

[3] = tested on: E. sakazakii 8272 (NCTC8155); experiment: agar well diffusion assay, E. sakazakii 8272; type: cell-based, Enterobacter sakazakii; parameters: key to zone of inhibition (inhibitory spectrum): +++: Zone of inhibition >2.0 cm in diameter produced.; ++: Zone of inhibition >1.5 cm in diameter produced.; +: Zone of inhibition >1.0 cm in diameter produced.; −: No zone detected; conditions: for zone of inhibition (inhibitory spectrum): E. sakazakii NCTC8155 DPC6091, pure synthesised peptide
Description: as §1

E. coli DPC6053 [4] = experiment: susceptibility to proteinase K, agar well diffusion assay; type: cell-based, Escherichia coli; conditions: proteinase K 2050 U/ml, 1:1 volume ratio, 4° C., 6 h
Description: Plates were incubated at 37° C. for 24 h. The positive controls used were the peptides isracidin (Peptide Protein Research Ltd.) and Cecropin P1 (Sigma TM).

[5] = tested on: E. sakazakii 5920 (ATCC12868); experiment: agar well diffusion assay, E. sakazakii 5920; type: cell-based, Enterobacter sakazakii; parameters: key to zone of inhibition (inhibitory spectrum): +++: Zone of inhibition >2.0 cm in diameter produced.; ++: Zone of inhibition >1.5 cm in diameter produced.; +: Zone of inhibition >1.0 cm in diameter produced.; −: No zone detected; conditions: for zone of inhibition (inhibitory spectrum): Enterobacter sakazakii ATCC12868 DPC6090, pure synthesised peptide
Description: as §1

E. coli O157:H7 DPC6054 = experiment: agar well diffusion assay, E. coli O157:H7 DPC6054; type: cell-based, Escherichia coli; parameters: key to zone of inhibition (inhibitory spectrum): +++: Zone of inhibition >2.0 cm in diameter produced.; ++: Zone of inhibition >1.5 cm in diameter produced.; +: Zone of inhibition >1.0 cm in diameter produced.; −: No zone detected; conditions: for zone of inhibition (inhibitory spectrum): E. coli O157:H7 DPC6054, pure synthesised peptide
[6] = tested on: Streptococcus mutans DPC4069; experiment: agar well diffusion assay, S. mutans DPC4069; type: cell-based; parameters: key: +++: Zone of inhibition >2.0 cm in diameter produced.; ++: Zone of inhibition >1.5 cm in diameter produced.; +: Zone of inhibition >1.0 cm in diameter produced.; −: No zone detected; conditions: pure synthesised peptide
[7] = tested on: Staphylococcus aureus DPC5246; experiment: agar well diffusion assay, S. aureus DPC5246; type: cell-based; parameters: key: +++: Zone of inhibition >2.0 cm in diameter produced.; ++: Zone of inhibition >1.5 cm in diameter produced.; +: Zone of inhibition >1.0 cm in diameter produced.; −: No zone detected; conditions: pure synthesised peptide
E. coli DPC6053 [8] = experiment: 96-well plate assay (OD600), MIC; type: cell-based, Escherichia coli; conditions: for minimum inhibitory concentration (MIC): E. coli DPC6053, 6 h at 37° C., OD600
Description: as §1

[9] = tested on: lactobacilli and other Gram-positive bacteria; conditions: Floris et al. 2003; cited from earlier work
[10] = tested on: S. aureus, Streptococcus pyogenes and L. monocytogenes; conditions: doses as low as; cited from earlier work

Molecule | zone of inhibition (inhibitory spectrum) [1] | zone of inhibition (inhibitory spectrum) (L. innocua DPC3306) | zone of inhibition (inhibitory spectrum) (E. coli O157:H7 DPC6055) | zone of inhibition (inhibitory spectrum) (E. coli DPC6053 [2]) | zone of inhibition (inhibitory spectrum) [3] | antimicrobial activity after treatment with proteinase K (E. coli DPC6053 [4]) | zone of inhibition (inhibitory spectrum) [5] | zone of inhibition (inhibitory spectrum) (E. coli O157:H7 DPC6054) | zone of inhibition (inhibitory spectrum) [6] | zone of inhibition (inhibitory spectrum) [7] | minimum inhibitory concentration (MIC) (E. coli DPC6053 [8]) | concentration at which the indicator organism was inhibited (E. coli DPC6053 [2]; E. coli DPC6053) [mM] | also measured
SDIPNPIGSENSEK (Strain DPC6026; listed as Lactobacillus acidophilus) [SEQ ID NO: 2, peptide of bovine αs1-casein f(183-207), found in fraction A1-49, chemically synthesised] | − | + (Zone of inhibition >1.0 cm in diameter produced.) | − | − | − | lose their antibacterial activity | − | − | − | − |  |  | inhibitory / antimicrobial activity (in words) (L. innocua DPC3306; crude fermentates: 96-well plate assay or well diffusion assay): some inhibitory activity; inhibitory / antimicrobial activity (in words) (E. coli DPC6053 [2]; E. coli DPC6053, crude fermentates: 96-well plate assay or well diffusion assay): no activity
CC[C@H](C)[C@H](NC(=O)[C@@H]1CCCN1C(=O)[C@H](Cc1cnc[nH]1)NC(=O)[C@H](CCCCN)NC(=O)[C@@H]1CCCN1C(=O)[C@@H](N)CCCNC(=N)N)C(=O)N[C@@H](CCCCN)C(=O)N[C@@H](Cc1cnc[nH]1)C(=O)N[C@@H](CCC(N)=O)C(=O)NCC(=O)N[C@@H](CC(C)C)C(=O)N1CCC[C@H]1C(=O)N[C@@H](CCC(N)=O)C(=O)N[C@@H](CCC(=O)O)C(=O)N[C@H](C(=O)N[C@@H](CC(C)C)C(=O)N[C@@H](CC(N)=O)C(=O)N[C@@H](CCC(=O)O)C(=O)N[C@@H](CC(N)=O)C(=O)N[C@@H](CC(C)C)C(=O)N[C@@H](CC(C)C)C(=O)N[C@@H](CCCNC(=N)N)C(=O)N[C@@H](Cc1ccccc1)C(=O)O)C(C)C [isracidin, Isracidin] (H-RPKHPIKHQGLPQEVLNENLLRF-OH) |  |  |  |  |  |  |  |  |  |  | 50 µM and 59 µM |  | concentration inhibiting in vitro growth [9]: 0.1 to 1 mg/mL; dose with strong protective effect [10]: 10 μg per mouse
CC[C@H](C)[C@H](NC(=O)CNC(=O)[C@H](CCC(=O)O)NC(=O)[C@H](CO)NC(=O)[C@@H](NC(=O)[C@H](CCCNC(=N)N)NC(=O)[C@H](CCCCN)NC(=O)[C@H](CCCCN)NC(=O)[C@H](C)NC(=O)[C@H](CO)NC(=O)[C@H](CC(N)=O)NC(=O)[C@H](CCC(=O)O)NC(=O)[C@H](CC(C)C)NC(=O)[C@H](CCCCN)NC(=O)[C@H](CCCCN)NC(=O)[C@H](C)NC(=O)[C@@H](NC(=O)[C@H](CCCCN)NC(=O)[C@H](CO)NC(=O)[C@H](CC(C)C)NC(=O)[C@H](Cc1c[nH]c2ccccc12)NC(=O)[C@@H](N)CO)[C@@H](C)O)[C@@H](C)CC)C(=O)N[C@@H](C)C(=O)N[C@H](C(=O)N[C@@H](C)C(=O)N[C@H](C(=O)N[C@@H](CCC(N)=O)C(=O)NCC(=O)NCC(=O)N1CCC[C@H]1C(=O)N[C@@H](CCCNC(=N)N)C(=O)O)[C@@H](C)CC)[C@@H](C)CC [Cecropin P1] (H-SWLSKTAKKLENSAKKRISEGIAIAIQGGPR-OH) |  |  |  |  |  |  |  |  |  |  |  |  | MIC of commercially available control peptides (E. coli DPC6053 [8]; strain not given): 50 µM
CC(C)C[C@H](NC(=O)[C@H](CC(C)C)NC(=O)[C@H](CC(N)=O)NC(=O)[C@H](CCC(=O)O)NC(=O)[C@H](CC(N)=O)NC(=O)[C@H](CC(C)C)NC(=O)[C@@H](N)C(C)C)C(=O)N[C@@H](CCCNC(=N)N)C(=O)O [SEQ ID NO: 3] (H-VLNENLLR-OH; N-terminus and C-terminus assumed) | +++ (Zone of inhibition >2.0 cm in diameter produced.) | ++ (Zone of inhibition >1.5 cm in diameter produced.) | +++ (Zone of inhibition >2.0 cm in diameter produced.) | +++ (Zone of inhibition >2.0 cm in diameter produced.) | +++ (Zone of inhibition >2.0 cm in diameter produced.) | lose their antibacterial activity | +++ (Zone of inhibition >2.0 cm in diameter produced.) | +++ (Zone of inhibition >2.0 cm in diameter produced.) | ++ (Zone of inhibition >1.5 cm in diameter produced.) | − | 220 µM (≈ 213 µg/mL) | 0.22 | concentration at which inhibition was shown ([3]; agar well-diffusion assay, E. sakazakii DPC6091): 0.22 mM
CC[C@H](C)[C@H](N)C(=O)N[C@@H](CCCCN)C(=O)N[C@@H](Cc1c[nH]cn1)C(=O)N[C@@H](CCC(N)=O)C(=O)NCC(=O)N[C@@H](CC(C)C)C(=O)N1CCC[C@H]1C(=O)N[C@@H](CCC(N)=O)C(=O)N[C@@H](CCC(=O)O)C(=O)O [SEQ ID NO: 1] (H-IKHQGLPQE-OH; N-terminus and C-terminus assumed) | +++ (Zone of inhibition >2.0 cm in diameter produced.) | ++ (Zone of inhibition >1.5 cm in diameter produced.) | +++ (Zone of inhibition >2.0 cm in diameter produced.) | +++ (Zone of inhibition >2.0 cm in diameter produced.) | +++ (Zone of inhibition >2.0 cm in diameter produced.) | lose their antibacterial activity | +++ (Zone of inhibition >2.0 cm in diameter produced.) | +++ (Zone of inhibition >2.0 cm in diameter produced.) | ++ (Zone of inhibition >1.5 cm in diameter produced.) | − | 78 µM (≈ 81.8 µg/mL) | 0.05 | concentration at which inhibition was shown (E. coli O157:H7 DPC6055; agar well-diffusion assay, E. coli DPC6055 (O157:H7 derivative)): 0.05 mM; concentration at which inhibition was shown ([5]; agar well-diffusion assay, E. sakazakii 5920 (ATCC12868)): 0.05 mM; concentration at which inhibition was shown (E. coli O157:H7 DPC6054; agar well-diffusion assay, E. coli DPC6054 (O157:H7 derivative)): 0.05 mM
